Experiment [1] concerns MT2. The experiment is described as follows: Cytotoxicity against human MT2 cells infected with HTLV-1 assessed as reduction in cell viability at 100 uM incubated for 3 days by MTT assay. The format is functional, cell-based. As to conditions: time 3.0 day.
In experiment [2] the test system is Jurkat. The experiment is described as follows: Cytotoxicity against human Jurkat cells assessed as reduction in cell viability at 100 uM incubated for 3 days by MTT assay. The format is functional, cell-based. The following applies: time 3.0 day.
For experiment [3], the system named is MT2. The experiment is described as follows: Induction of GAG aggregation in middle cross section of human MT-2 cells infected with HTLV-1 assessed as ratio of cells with aggregated GAG at 50 uM incubated for 2 hrs by immunostaining based confocal microscopic analysis (reference value: 44.1%). It counts as cell-based.
Experiment [4] has as its system MT2. The experiment in a line: Cytotoxicity against human MT2 cells infected with HTLV-1 assessed as reduction in cell viability at 50 uM incubated for 3 days by MTT assay. It counts as functional, cell-based. As to conditions: time 3.0 day.
The test system of experiment [5] is HeLa. The experiment is described as follows: Upregulation of membrane localized GAG protein expression in human HeLa cells transfected with GAG-FLAG expression vector assessed as effect on E-cadherin protein expression at 50 uM by chemiluminescence based immunoblotting analysis. The format is functional, cell-based.
The subject of experiment [6] is HeLa. The experiment is described as follows: Induction of GAG aggregation in human HeLa cells transfected with Gag-FLAG expression vector assessed as increase in number of bright GAG dots at 50 uM incubated for 2 hrs by immunostaining based confocal microscopic analysis. The format is cell-based.
In experiment [7] the test system is MT2. The experiment in a line: Induction of GAG aggregation in top cross section of human MT-2 cells infected with HTLV-1 assessed as ratio of cells with aggregated GAG at 50 uM incubated for 2 hrs by immunostaining based confocal microscopic analysis (reference value: 4.3%). It counts as cell-based.
For experiment [8], the system named is MT2. The experiment is described as follows: Suppression of GAG protein cleavage in human MT-2 cells infected with HTLV-1 assessed as reduction in p19 protein expression in supernatant at 50 uM incubated for 3 days by immunoblot analysis. It counts as cell-based. As to conditions: time 3.0 day.
The subject of experiment [9] is MT2. The experiment is described as follows: Suppression of GAG protein cleavage in human MT-2 cells infected with HTLV-1 assessed as increase in intracellular Pr53 protein expression at 50 uM incubated for 3 days by immunoblot analysis. The format is cell-based. The following applies: time 3.0 day.
The test system of experiment [10] is MT2. The experiment is described as follows: Suppression of GAG protein cleavage in human MT-2 cells infected with HTLV-1 assessed as reduction in intracellular p28 protein expression at 50 uM incubated for 3 days by immunoblot analysis. As to conditions: time 3.0 day. It counts as cell-based.
Experiment [11] concerns Jurkat. The experiment is described as follows: Cytotoxicity against human Jurkat cells assessed as reduction in cell viability at 50 uM incubated for 3 days by MTT assay. The format is functional, cell-based. The following applies: time 3.0 day.
Experiment [12] concerns HeLa. The experiment in a line: Induction of GAG aggregation in human HeLa cells transfected with Gag-Venus expression vector assessed as increase in number of bright GAG dots at 50 uM incubated for 2 hrs by immunostaining based confocal microscopic analysis. The format is cell-based.
Experiment [13] deals with MT2. The experiment is described as follows: Preferential cytotoxicity against human MT2 cells infected with HTLV-1 assessed as reduction in cell viability at 10 to 25 uM incubated for 3 days by MTT assay. The format is functional, cell-based. As to conditions: dose 10-25 µM, time 3.0 day.

Calls of active or inactive are those of the source. No cut-off for these calls is given here.

Consider `CC1(C)CC[C@]2(C(=O)O[C@@H]3O[C@H](CO[C@@H]4O[C@H](CO)[C@@H](O)[C@H](O)[C@H]4O)[C@@H](O)[C@H](O)[C@H]3O)CC[C@]3(C)C(=CC[C@@H]4[C@@]5(C)CC[C@H](O[C@@H]6OC[C@H](O)[C@H](O)[C@H]6O[C@@H]6OC[C@@H](O)[C@H](O)[C@H]6O)[C@@](C)(CO)[C@@H]5CC[C@]43C)[C@@H]2C1`, for which the result in the experiment on MT2 [1] and in the experiment with Jurkat [2] was inactive.
As to `CC1(C)CC[C@]2(C(=O)O)CC[C@]3(C)C(=CC[C@@H]4[C@@]5(C)CC[C@H](O[C@@H]6OC[C@H](O)[C@H](O)[C@H]6O[C@@H]6O[C@H](CO)[C@@H](O)[C@H](O)[C@H]6O)[C@@](C)(CO)[C@@H]5CC[C@]43C)[C@@H]2C1`, the results for the Ratio in the experiment with MT2 [3] and in the experiment on MT2 [7] were 41.3% and 7.3%, respectively. Further, the result in the experiment on MT2 [4], in the experiment with MT2 [1], with Jurkat [2], with HeLa [6], in the experiment with MT2 [8] and in the experiment on MT2 [10] was Active. Also, the result with HeLa [12] was Active. Also, the result in the experiment with HeLa [5], in the experiment with MT2 [9] and in the experiment on Jurkat [11] was inactive.
Take `CC1(C)CC[C@]2(C(=O)O)CC[C@]3(C)C(=CC[C@@H]4[C@@]5(C)CC[C@H](O)[C@@](C)(CO)[C@@H]5CC[C@]43C)[C@@H]2C1`: the outcome in the experiment with MT2 [4] and in the experiment with Jurkat [11] was Active. In addition, the result with MT2 [8], with MT2 [9] and in the experiment with MT2 [10] was inactive.
For `CC1(C)CC[C@]2(C(=O)O)CC[C@]3(C)C(=CC[C@@H]4[C@@]5(C)CC[C@H](O[C@@H]6OC[C@H](O)[C@H](O)[C@H]6O[C@@H]6OC[C@@H](O)[C@H](O)[C@H]6O)[C@@](C)(CO)[C@@H]5CC[C@]43C)[C@@H]2C1`, the result in the experiment on MT2 [4], in the experiment on MT2 [1], in the experiment on Jurkat [2] and with Jurkat [11] was Active. For the same compound, in the experiment on MT2 [13], the outcome was inactive.
Regarding `CC1(C)CC[C@]2(C(=O)O[C@@H]3O[C@H](CO[C@@H]4O[C@H](CO)[C@@H](O)[C@H](O)[C@H]4O)[C@@H](O)[C@H](O)[C@H]3O)CC[C@]3(C)C(=CC[C@@H]4[C@@]5(C)CC[C@H](O[C@@H]6OC[C@H](O)[C@H](O)[C@H]6O)[C@@](C)(CO)[C@@H]5CC[C@]43C)[C@@H]2C1`, the outcome in the experiment with MT2 [1] and with Jurkat [2] was inactive.
Take `C[C@@H]1O[C@@H](O[C@H]2[C@H](O[C@H]3CC[C@@]4(C)[C@@H](CC[C@]5(C)[C@@H]4CC=C4[C@@H]6CC(C)(C)CC[C@]6(C(=O)O[C@@H]6O[C@H](CO[C@@H]7O[C@H](CO)[C@@H](O[C@@H]8O[C@@H](C)[C@H](O)[C@@H](O)[C@H]8O)[C@H](O)[C@H]7O)[C@@H](O)[C@H](O)[C@H]6O)CC[C@]45C)[C@]3(C)CO)OC[C@H](O)[C@@H]2O)[C@H](O)[C@H](O)[C@H]1O`: the result in the experiment with MT2 [1] and in the experiment with Jurkat [2] was inactive.
With `CC1(C)CC[C@]2(C(=O)O)CC[C@]3(C)C(=CC[C@@H]4[C@@]5(C)CC[C@H](O[C@@H]6OC[C@H](O)[C@H](O)[C@H]6O)[C@@](C)(CO)[C@@H]5CC[C@]43C)[C@@H]2C1`, the result in the experiment with MT2 [4], with MT2 [1], with Jurkat [2] and in the experiment with Jurkat [11] was Active. The result in the experiment with MT2 [13] was inactive.
Consider `C[C@@H]1O[C@@H](O[C@H]2[C@H](O)[C@@H](O)[C@H](OC[C@H]3O[C@@H](OC(=O)[C@]45CCC(C)(C)C[C@H]4C4=CC[C@@H]6[C@@]7(C)CC[C@H](O[C@@H]8OC[C@H](O[C@@H]9O[C@@H](C)[C@H](O)[C@@H](O)[C@H]9O)[C@H](O)[C@H]8O[C@@H]8O[C@H](CO)[C@@H](O)[C@H](O)[C@H]8O)[C@@](C)(CO)[C@@H]7CC[C@@]6(C)[C@]4(C)CC5)[C@H](O)[C@@H](O)[C@@H]3O)O[C@@H]2CO)[C@H](O)[C@H](O)[C@H]1O`, for which the outcome in the experiment with MT2 [1] and with Jurkat [2] was inactive.

The record behind these values is ChEMBL document CHEMBL5325478, “The unique activity of saponin: Induction of cytotoxicity in HTLV-1 infected cells” (Bioorg Med Chem, 2023).
